{
  "source": "paper PMC10623572",
  "about": "“Subtle Structural Modification of a Synthetic Cannabinoid Receptor Agonist Drastically Increases its Efficacy at the CB1 Receptor” (ACS Chemical Neuroscience, 2023)",
  "key": {"[1]": {"biological_target": "T1, CB1R (presynaptic, mouse hippocampus) (Mus musculus, UniProt P47746)", "T1 construct": "gene Cnr1; native receptor in hippocampal brain slices", "T1 sequence (P47746 whole entry)": "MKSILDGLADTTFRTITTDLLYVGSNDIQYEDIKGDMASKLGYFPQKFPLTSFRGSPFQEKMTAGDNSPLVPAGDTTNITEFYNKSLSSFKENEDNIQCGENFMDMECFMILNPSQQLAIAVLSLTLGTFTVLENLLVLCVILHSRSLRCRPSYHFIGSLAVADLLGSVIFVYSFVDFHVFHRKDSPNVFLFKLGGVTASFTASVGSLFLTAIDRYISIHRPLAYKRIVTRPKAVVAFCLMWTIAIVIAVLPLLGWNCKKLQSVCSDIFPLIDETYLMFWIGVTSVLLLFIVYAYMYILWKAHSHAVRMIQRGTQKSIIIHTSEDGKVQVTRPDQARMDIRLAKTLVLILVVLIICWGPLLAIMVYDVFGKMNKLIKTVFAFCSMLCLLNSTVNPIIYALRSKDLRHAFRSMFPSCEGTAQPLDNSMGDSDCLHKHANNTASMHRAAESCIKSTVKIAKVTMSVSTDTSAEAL", "experiment": "fEPSP field recording, inhibition of glutamate release in hippocampal slices", "conditions": "agonist; native presynaptic receptor, downstream read-out; 31-32 °C; 50 µM caffeine; reversed by AM251"}, "CB1R (CB1R-Rluc) [2]": {"biological_target": "T2, CB1R (CB1R-Rluc) (Homo sapiens, UniProt P21554)", "T2 construct": "gene CNR1; Rluc-fused receptor in HEK-293T cells; with mVenus-Gi1 plus Gbeta1/Ggamma2, or beta-arrestin 2-Venus plus GRK2", "T2 sequence (P21554 whole entry, the tested form may be a part)": "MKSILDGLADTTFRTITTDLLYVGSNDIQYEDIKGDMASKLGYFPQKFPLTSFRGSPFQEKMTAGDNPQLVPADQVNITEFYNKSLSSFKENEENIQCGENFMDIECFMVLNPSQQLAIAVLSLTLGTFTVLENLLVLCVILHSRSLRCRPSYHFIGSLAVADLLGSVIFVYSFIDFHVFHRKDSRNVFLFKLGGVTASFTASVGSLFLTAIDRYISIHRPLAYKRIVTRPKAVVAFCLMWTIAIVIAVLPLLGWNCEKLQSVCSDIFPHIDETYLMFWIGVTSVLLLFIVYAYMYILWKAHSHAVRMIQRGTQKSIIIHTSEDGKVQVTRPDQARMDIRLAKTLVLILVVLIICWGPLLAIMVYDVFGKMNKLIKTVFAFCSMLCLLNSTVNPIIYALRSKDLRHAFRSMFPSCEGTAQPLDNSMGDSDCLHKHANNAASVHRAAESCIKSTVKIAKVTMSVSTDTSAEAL", "experiment": "BRET CB1R-Rluc/Gi1-Venus engagement", "type": "cell-based"}, "CB1R (CB1R-Rluc) [3]": {"biological_target": "T2, CB1R (CB1R-Rluc)", "experiment": "BRET CB1R-Rluc/beta-arrestin 2-Venus recruitment", "type": "cell-based", "text": "BRET CB1R-Rluc/beta-arrestin 2-Venus recruitment on CB1R (CB1R-Rluc)"}, "[4]": {"conditions": "read-out: 5F-MMB-PICA (converted)"}, "[5]": {"conditions": "read-out: 5F-SDB-006 (converted)"}},
  "data": [
    {"smiles": "COC(=O)C(NC(=O)c1cn(CCCCCF)c2ccccc12)C(C)C", "note": "(stereo not shown) [5F-MMB-PICA]", "values": [
      {"measurement": "pEC50", "setting": "[1]", "value": 6.72},
      {"measurement": "EC50", "setting": "CB1R (CB1R-Rluc) [2]; [4]", "value": 2950, "unit": "nM"},
      {"measurement": "EC50", "setting": "CB1R (CB1R-Rluc) [3]; [4]", "value": 3630, "unit": "nM"}
    ]},
    {"smiles": "O=C(NCc1ccccc1)c1cn(CCCCCF)c2ccccc12", "note": "[5F-SDB-006]", "values": [
      {"measurement": "EC50", "setting": "CB1R (CB1R-Rluc) [2]; [5]", "value": 1480, "unit": "nM"},
      {"measurement": "EC50", "setting": "CB1R (CB1R-Rluc) [3]; [5]", "value": 2450, "unit": "nM"}
    ]},
    {"smiles": "COC(=O)C(NC(=O)c1cn(CCCCCF)c2ccccc12)C(C)(C)C", "note": "(stereo not shown) [5F-MDMB-PICA]", "values": [
      {"measurement": "pEC50", "setting": "[1]", "value": 7.20}
    ]},
    {"smiles": "O=C(Nc1cccc2ccccc12)c1cn(CCCCCF)c2ccccc12", "note": "[5F-NNEI]", "values": [
      {"measurement": "EC50", "setting": "CB1R (CB1R-Rluc) [2]; read-out: 5F-NNEI (converted)", "value": 4680, "unit": "nM"},
      {"measurement": "EC50", "setting": "CB1R (CB1R-Rluc) [3]; read-out: 5F-NNEI", "value": 5250, "unit": "nM"}
    ]},
    {"smiles": "O=C(c1cccc2ccccc12)c1cn(CCCCCF)c2ccccc12", "note": "[AM2201]", "values": [
      {"measurement": "EC50", "setting": "CB1R (CB1R-Rluc) [2]; read-out: AM2201 (converted)", "value": 339, "unit": "nM"},
      {"measurement": "EC50", "setting": "CB1R (CB1R-Rluc) [3]; read-out: AM2201 (converted)", "value": 759, "unit": "nM"}
    ]}
  ]
}
